Experimental data: paper PMC5218480 (PLoS ONE, 2017)

Test system: MV-4-11 cells
Experiment: Gene expression microarray analysis (Affymetrix PrimeView) and GSEA
Type: cell-based, human
Design: RFU PODN (11730768_x_at) / Fold change /veh PODN (11730768_x_at) / RFU LINC00158 (11744669_a_at) / Fold change /veh LINC00158 (11744669_a_at) / RFU DUSP10 (11751237_a_at) / Fold change /veh DUSP10 (11751237_a_at) / RFU ID3 (11757404_x_at) / Fold change /veh ID3 (11757404_x_at) / RFU PLEKHG5 (11737974_s_at) / Fold change /veh PLEKHG5 (11737974_s_at) / RFU LRRC4B (11730491_at) / Fold change /veh LRRC4B (11730491_at) / RFU GIMAP4 (11747438_a_at) / Fold change /veh GIMAP4 (11747438_a_at) / RFU KRT8 (11758183_x_at) / Fold change /veh KRT8 (11758183_x_at) / RFU CNN1 (11734310_a_at) / Fold change /veh CNN1 (11734310_a_at) / RFU VPS37D (11726825_at) / Fold change /veh VPS37D (11726825_at) / RFU C10orf10 (11716522_x_at) / Fold change /veh C10orf10 (11716522_x_at) / RFU KIR2DL2 /// KIR2DL4 /// KIR2DL5A /// KIR2DL5B /// KIR2DS1 /// KIR2DS2 /// KIR2DS3 /// KIR2DS4 /// KIR3DL3 /// KIR3DL3 /// KIR3DS1 (11738374_at) / Fold change /veh KIR2DL2 /// KIR2DL4 /// KIR2DL5A /// KIR2DL5B /// KIR2DS1 /// KIR2DS2 /// KIR2DS3 /// KIR2DS4 /// KIR3DL3 /// KIR3DL3 /// KIR3DS1 (11738374_at) / RFU C1QL1 (11718748_at) / Fold change /veh C1QL1 (11718748_at) / RFU TMPRSS4 (11747572_a_at) / Fold change /veh TMPRSS4 (11747572_a_at) / RFU HAMP (11756126_x_at) / Fold change /veh HAMP (11756126_x_at) / RFU RNFT2 (11725882_a_at) / Fold change /veh RNFT2 (11725882_a_at) / RFU NR4A2 (11747474_a_at) / Fold change /veh NR4A2 (11747474_a_at) / RFU ABCC12 (11746883_a_at) / Fold change /veh ABCC12 (11746883_a_at) / RFU TMEM136 (11760407_x_at) / Fold change /veh TMEM136 (11760407_x_at) / RFU CLDN22 /// WWC2 (11732394_at) / Fold change /veh CLDN22 /// WWC2 (11732394_at) / RFU HLA-DPB1 (11760878_x_at) / Fold change /veh HLA-DPB1 (11760878_x_at) / RFU SPINT1 (11716480_a_at) / Fold change /veh SPINT1 (11716480_a_at) / RFU GAP43 (11754022_s_at) / Fold change /veh GAP43 (11754022_s_at) / RFU A4GNT (11735810_at) / Fold change /veh A4GNT (11735810_at) / RFU PRB3 (11715151_x_at) / Fold change /veh PRB3 (11715151_x_at) / RFU TUBB4B (11761932_at) / Fold change /veh TUBB4B (11761932_at) / RFU CAPN14 (11732068_a_at) / Fold change /veh CAPN14 (11732068_a_at) / RFU TMCC2 (11721928_a_at) / Fold change /veh TMCC2 (11721928_a_at) / RFU IRGQ (11745062_a_at) / Fold change /veh IRGQ (11745062_a_at) / RFU FAM174B (11720279_a_at) / Fold change /veh FAM174B (11720279_a_at) / RFU TMPRSS4 (11748680_a_at) / Fold change /veh TMPRSS4 (11748680_a_at) / RFU FAM212B (11763350_a_at) / Fold change /veh FAM212B (11763350_a_at) / RFU PLEKHG5 (11743358_a_at) / Fold change /veh PLEKHG5 (11743358_a_at) / RFU ZSCAN30 (11745921_a_at) / Fold change /veh ZSCAN30 (11745921_a_at) / RFU CMKLR1 (11741424_a_at) / Fold change /veh CMKLR1 (11741424_a_at) / RFU LOC101060620 /// MAPK8IP1 (11723275_at) / Fold change /veh LOC101060620 /// MAPK8IP1 (11723275_at) / RFU SPTSSB (11747773_x_at) / Fold change /veh SPTSSB (11747773_x_at) / RFU PRSS12 (11739890_at) / Fold change /veh PRSS12 (11739890_at) / RFU BIN1 (11741810_x_at) / Fold change /veh BIN1 (11741810_x_at) / RFU WNT11 (11732464_a_at) / Fold change /veh WNT11 (11732464_a_at) / RFU C10orf10 (11716521_a_at) / Fold change /veh C10orf10 (11716521_a_at) / RFU C5orf56 (11738089_at) / Fold change /veh C5orf56 (11738089_at) / RFU CYB561 (11721691_x_at) / Fold change /veh CYB561 (11721691_x_at) / RFU ANKRD19P (11752326_a_at) / Fold change /veh ANKRD19P (11752326_a_at) / RFU OR2T12 /// OR2T33 /// OR2T8 (11738714_s_at) / Fold change /veh OR2T12 /// OR2T33 /// OR2T8 (11738714_s_at) / RFU VCAN (11748164_a_at) / Fold change /veh VCAN (11748164_a_at) / RFU JSRP1 (11732532_at) / Fold change /veh JSRP1 (11732532_at) / RFU KRTAP10-11 (11738290_x_at) / Fold change /veh KRTAP10-11 (11738290_x_at) / RFU MYO3A (11730013_a_at) / Fold change /veh MYO3A (11730013_a_at) / RFU EBF3 (11725865_a_at) / Fold change /veh EBF3 (11725865_a_at) / RFU CAMK2N1 (11719241_x_at) / Fold change /veh CAMK2N1 (11719241_x_at) / RFU C5orf56 (11738088_a_at) / Fold change /veh C5orf56 (11738088_a_at) / RFU OLFML3 (11715873_a_at) / Fold change /veh OLFML3 (11715873_a_at) / RFU LOC100653217 /// NTM (11731650_a_at) / Fold change /veh LOC100653217 /// NTM (11731650_a_at) / RFU MAPK11 (11762145_a_at) / Fold change /veh MAPK11 (11762145_a_at) / RFU FIZ1 (11724087_x_at) / Fold change /veh FIZ1 (11724087_x_at) / RFU OASL (11726364_x_at) / Fold change /veh OASL (11726364_x_at) / RFU SOX15 (11748057_x_at) / Fold change /veh SOX15 (11748057_x_at) / RFU CD79A (11719716_a_at) / Fold change /veh CD79A (11719716_a_at) / RFU HIST1H1D (11736915_at) / Fold change /veh HIST1H1D (11736915_at) / RFU CASKIN2 (11723855_a_at) / Fold change /veh CASKIN2 (11723855_a_at) / RFU LOC730098 (11760151_x_at) / Fold change /veh LOC730098 (11760151_x_at) / RFU OR4N2 (11742367_at) / Fold change /veh OR4N2 (11742367_at) / RFU PRRT2 (11749266_a_at) / Fold change /veh PRRT2 (11749266_a_at) / RFU SNX32 (11753110_a_at) / Fold change /veh SNX32 (11753110_a_at) / RFU CDHR5 (11726645_a_at) / Fold change /veh CDHR5 (11726645_a_at) / RFU RCAN1 (11760418_a_at) / Fold change /veh RCAN1 (11760418_a_at) / RFU FAM167A (11723789_a_at) / Fold change /veh FAM167A (11723789_a_at) / RFU FAM26E (11764081_at) / Fold change /veh FAM26E (11764081_at) / RFU ISYNA1 (11749810_s_at) / Fold change /veh ISYNA1 (11749810_s_at) / RFU ACY1 (11761880_at) / Fold change /veh ACY1 (11761880_at) / RFU 11764098_at / Fold change /veh 11764098_at / RFU SAMD14 (11745864_x_at) / Fold change /veh SAMD14 (11745864_x_at) / RFU NPB (11741838_a_at) / Fold change /veh NPB (11741838_a_at) / RFU TMPRSS6 (11731388_a_at) / Fold change /veh TMPRSS6 (11731388_a_at) / RFU KRTAP10-2 (11738614_at) / Fold change /veh KRTAP10-2 (11738614_at) / RFU ARHGAP8 /// PRR5-ARHGAP8 (11727945_x_at) / Fold change /veh ARHGAP8 /// PRR5-ARHGAP8 (11727945_x_at) / RFU KRTAP5-7 /// NADSYN1 (11734609_at) / Fold change /veh KRTAP5-7 /// NADSYN1 (11734609_at) / RFU RASL12 (11751679_a_at) / Fold change /veh RASL12 (11751679_a_at) / RFU CDKN2B (11736163_a_at) / Fold change /veh CDKN2B (11736163_a_at) / RFU PRF1 (11729649_at) / Fold change /veh PRF1 (11729649_at) / RFU, ZNF638 /// ZNF638-IT1 / Fold change vs veh, ZNF638 /// ZNF638-IT1 / RFU, PANK3 / Fold change vs veh, PANK3 / RFU, SH3YL1 / Fold change vs veh, SH3YL1 / RFU, ZEB2 / Fold change vs veh, ZEB2 / RFU, NRIP1 / Fold change vs veh, NRIP1 / RFU, PTTG1IP / Fold change vs veh, PTTG1IP / RFU, CAPN2 / Fold change vs veh, CAPN2 / RFU, MED14 / Fold change vs veh, MED14 / RFU, SNORA58 / Fold change vs veh, SNORA58 / RFU, C1orf63 / Fold change vs veh, C1orf63 / RFU, LRRFIP1 / Fold change vs veh, LRRFIP1 / RFU, NDUFAF7 / Fold change vs veh, NDUFAF7 / RFU, SLC12A2 / Fold change vs veh, SLC12A2 / RFU, IBTK / Fold change vs veh, IBTK / RFU, ESF1 / Fold change vs veh, ESF1 / Fold change vs veh, TMEM50B / RFU, TAOK1 / Fold change vs veh, TAOK1 / RFU, ACBD3 / Fold change vs veh, ACBD3 / RFU, TMA16 / Fold change vs veh, TMA16 / RFU, RWDD3 / Fold change vs veh, RWDD3 / RFU, BCAT1 / Fold change vs veh, BCAT1 / RFU, EDEM3 / Fold change vs veh, EDEM3 / RFU, TMEM33 / Fold change vs veh, TMEM33 / RFU, WDR75 / Fold change vs veh, WDR75 / RFU, AHCTF1 / Fold change vs veh, AHCTF1 / RFU, TFRC / Fold change vs veh, TFRC / RFU, ZDHHC17 / Fold change vs veh, ZDHHC17 / RFU, NOM1 / Fold change vs veh, NOM1 / RFU, ARL8B / Fold change vs veh, ARL8B / RFU, ZBTB11 / Fold change vs veh, ZBTB11 / RFU, TAMM41 / Fold change vs veh, TAMM41 / RFU, KIAA1704 /// LOC100996395 / Fold change vs veh, KIAA1704 /// LOC100996395 / RFU, ING1 / Fold change vs veh, ING1 / RFU, TRMT61B / Fold change vs veh, TRMT61B / RFU, FUBP3 / Fold change vs veh, FUBP3 / RFU, TP53 / Fold change vs veh, TP53 / RFU, TNKS2 / Fold change vs veh, TNKS2 / RFU, ZFP14 / Fold change vs veh, ZFP14 / RFU, ACTR2 / Fold change vs veh, ACTR2 / RFU, PPP3R1 / Fold change vs veh, PPP3R1 / RFU, PIK3R1 / Fold change vs veh, PIK3R1 / RFU, HNRNPA1 / Fold change vs veh, HNRNPA1 / RFU, RNF170 / Fold change vs veh, RNF170 / RFU, ZNF28 / Fold change vs veh, ZNF28 / RFU, RNGTT / Fold change vs veh, RNGTT / RFU, OGT / Fold change vs veh, OGT / RFU, BRD1 / Fold change vs veh, BRD1 / RFU, MARS / Fold change vs veh, MARS / RFU, ZNF655 / Fold change vs veh, ZNF655 / RFU, FAHD1 / Fold change vs veh, FAHD1 / RFU, BDP1 / Fold change vs veh, BDP1 / RFU, LRRCC1 / Fold change vs veh, LRRCC1 / RFU, ARID1A / Fold change vs veh, ARID1A / RFU, ZNF146 / Fold change vs veh, ZNF146 / RFU, ZNF330 / Fold change vs veh, ZNF330 / RFU, GPN3 / Fold change vs veh, GPN3 / RFU, C9orf123 / Fold change vs veh, C9orf123 / RFU, N4BP2L2 / Fold change vs veh, N4BP2L2 / RFU, ARFIP1 / Fold change vs veh, ARFIP1 / RFU, FAM179B / Fold change vs veh, FAM179B / RFU, BCL10 / Fold change vs veh, BCL10 / RFU, UHRF1BP1L / Fold change vs veh, UHRF1BP1L / RFU, BET1 / Fold change vs veh, BET1 / RFU, CNOT2 / Fold change vs veh, CNOT2 / RFU, ZNF268 / Fold change vs veh, ZNF268 / Fold change vs veh, ZNF507 / RFU, DGCR2 / Fold change vs veh, DGCR2 / RFU, WDSUB1 / Fold change vs veh, WDSUB1 / Fold change vs veh, HSP90B1 /// MIR3652 / RFU, ADSS / Fold change vs veh, ADSS / RFU, GK / Fold change vs veh, GK / RFU, ZNF148 / Fold change vs veh, ZNF148 / RFU, TAF9 / Fold change vs veh, TAF9 / RFU, SLC1A5 / Fold change vs veh, SLC1A5 / RFU, SLMO2 / Fold change vs veh, SLMO2 / RFU, ABCC4 / Fold change vs veh, ABCC4 / RFU, LOC101060439 /// RAP1B / Fold change vs veh, LOC101060439 /// RAP1B / RFU, RFX7 / Fold change vs veh, RFX7 / RFU, GTPBP10 / Fold change vs veh, GTPBP10 / RFU, CNEP1R1 / Fold change vs veh, CNEP1R1 / RFU, BIVM-ERCC5 /// ERCC5 / Fold change vs veh, BIVM-ERCC5 /// ERCC5 / RFU, ILF3 / Fold change vs veh, ILF3 / RFU 11762660_at / Fold change /veh 11762660_at / RFU VCAN (11757783_s_at) / Fold change /veh VCAN (11757783_s_at) / RFU DDX43 (11728927_at) / Fold change /veh DDX43 (11728927_at) / RFU KRT8 (11758188_x_at) / Fold change /veh KRT8 (11758188_x_at) / RFU NKD1 (11759106_at) / Fold change /veh NKD1 (11759106_at) / RFU SRD5A1 (11742802_a_at) / Fold change /veh SRD5A1 (11742802_a_at) / RFU TPSAB1 /// TPSB2 (11721975_s_at) / Fold change /veh TPSAB1 /// TPSB2 (11721975_s_at) / RFU GSTM3 (11746129_a_at) / Fold change /veh GSTM3 (11746129_a_at) / RFU IL23R (11737362_x_at) / Fold change /veh IL23R (11737362_x_at) / RFU TMEM51 (11727254_a_at) / Fold change /veh TMEM51 (11727254_a_at) / RFU PIWIL2 (11732686_x_at) / Fold change /veh PIWIL2 (11732686_x_at) / RFU ORM1 (11744905_x_at) / Fold change /veh ORM1 (11744905_x_at) / RFU CCDC152 (11743942_at) / Fold change /veh CCDC152 (11743942_at) / RFU ECM1 (11717891_a_at) / Fold change /veh ECM1 (11717891_a_at) / RFU IL23R (11748794_a_at) / Fold change /veh IL23R (11748794_a_at) / RFU TNFAIP8L3 (11732012_x_at) / Fold change /veh TNFAIP8L3 (11732012_x_at) / RFU MBOAT4 (11741988_at) / Fold change /veh MBOAT4 (11741988_at) / RFU 11764193_at / Fold change /veh 11764193_at / RFU TMEM53 (11763286_at) / Fold change /veh TMEM53 (11763286_at) / RFU MAGEB2 (11727129_at) / Fold change /veh MAGEB2 (11727129_at) / RFU TMEM200A (11744735_a_at) / Fold change /veh TMEM200A (11744735_a_at) / RFU CCDC152 (11751479_a_at) / Fold change /veh CCDC152 (11751479_a_at) / RFU FAM211A (11726209_a_at) / Fold change /veh FAM211A (11726209_a_at) / RFU RGS16 (11746705_a_at) / Fold change /veh RGS16 (11746705_a_at) / RFU VCAN (11755009_s_at) / Fold change /veh VCAN (11755009_s_at) / RFU RHOB (11743442_s_at) / Fold change /veh RHOB (11743442_s_at) / RFU RGS16 (11720943_a_at) / Fold change /veh RGS16 (11720943_a_at) / RFU RGS16 (11720944_at) / Fold change /veh RGS16 (11720944_at) / RFU, VPS4B / Fold change vs veh, VPS4B / RFU, CREB1 / Fold change vs veh, CREB1 / RFU, DNAJC13 / Fold change vs veh, DNAJC13 / RFU, GNAQ / Fold change vs veh, GNAQ / RFU, CDK5R1 / Fold change vs veh, CDK5R1 / RFU, ZRANB3 / Fold change vs veh, ZRANB3 / RFU, CUL4A / Fold change vs veh, CUL4A / RFU, CCNY / Fold change vs veh, CCNY / RFU, UFL1 / Fold change vs veh, UFL1 / RFU, COG3 / Fold change vs veh, COG3 / RFU, DIAPH2 / Fold change vs veh, DIAPH2 / RFU, SKA2 / Fold change vs veh, SKA2 / RFU, AFF3 / Fold change vs veh, AFF3 / RFU, LMF1 / Fold change vs veh, LMF1 / RFU, IPO11 / Fold change vs veh, IPO11 / RFU, DFFB / Fold change vs veh, DFFB / RFU, FOXP1 / Fold change vs veh, FOXP1 / RFU, CARD8 / Fold change vs veh, CARD8 / RFU, STRN3 / Fold change vs veh, STRN3 / RFU, ADK / Fold change vs veh, ADK / RFU, RASSF2 / Fold change vs veh, RASSF2 / RFU, WIPF1 / Fold change vs veh, WIPF1 / RFU, LARP1B / Fold change vs veh, LARP1B / RFU, RASA1 / Fold change vs veh, RASA1 / RFU, RB1 / Fold change vs veh, RB1 / RFU, PPFIA1 / Fold change vs veh, PPFIA1 / RFU, MAT2A / Fold change vs veh, MAT2A / RFU, CCT5 / Fold change vs veh, CCT5 / RFU, WDR92 / Fold change vs veh, WDR92 / RFU, CUX1 / Fold change vs veh, CUX1 / RFU, TTC7A / Fold change vs veh, TTC7A / RFU, TMEM135 / Fold change vs veh, TMEM135 / RFU, DEPTOR / Fold change vs veh, DEPTOR / RFU, CPM / Fold change vs veh, CPM / RFU, DNAJB6 / Fold change vs veh, DNAJB6 / RFU, CACNA2D3 / Fold change vs veh, CACNA2D3 / RFU, DTX4 / Fold change vs veh, DTX4 / RFU, TFCP2 / Fold change vs veh, TFCP2 / RFU, GMCL1 /// GMCL1P1 / Fold change vs veh, GMCL1 /// GMCL1P1 / RFU, AEBP2 / Fold change vs veh, AEBP2 / RFU, SNHG1 /// SNORD22 /// SNORD25 /// SNORD26 /// SNORD27 /// SNORD28 /// SNORD29 /// SNORD31 / Fold change vs veh, SNHG1 /// SNORD22 /// SNORD25 /// SNORD26 /// SNORD27 /// SNORD28 /// SNORD29 /// SNORD31 / Fold change (Aza/veh), C12orf56 (ProbeSet 11735607_a_at) / Fold change (ACY-1035/veh), C12orf56 (ProbeSet 11735607_a_at) / Fold change (Aza/veh), FGFR1OP (ProbeSet 11751329_s_at) / Fold change (ACY-1035/veh), FGFR1OP (ProbeSet 11751329_s_at) / Fold change (Aza/veh), VPS36 (ProbeSet 11739960_a_at) / Fold change (ACY-1035/veh), VPS36 (ProbeSet 11739960_a_at) / RFU SYPL1 (11715823_x_at) / Fold change /veh SYPL1 (11715823_x_at) / RFU IGFBP7 (11715501_s_at) / Fold change /veh IGFBP7 (11715501_s_at) / RFU REEP3 (11722064_at) / Fold change /veh REEP3 (11722064_at) / RFU IGLL1 (11728026_x_at) / Fold change /veh IGLL1 (11728026_x_at): dose or concentration left out as unconfirmed
Conditions: MV-4-11 cells, 48 hours

Nc1ccc(-c2cccs2)cc1NC(=O)c1ccc2c(c1)cc(C1CC1)n2CCN1CCOCC1 [ACY-1035]
RFU PODN (11730768_x_at): 25.60 RFU
